According to patent US12077534B2, “Aza-heterobicyclic inhibitors of MAT2A and methods of use for treating cancer” (Les Laboratoires Servier SAS, priority 2018, dated 2024):

Columns and labels:
[1] = biological target: T1, MAT2A homodimer (Homo sapiens, UniProt P31153); assay: MAT2A biochemical assay (phosphate release, PiColorLock Gold); details: recombinant MAT2A homodimer, 60 min pre-incubation, 25° C.; read-out: Enzyme Inhibition
T1 construct: inferred from Ni sepharose purification and imidazole elution; made in house; host or cells: SF9 insect cells, recombinant baculovirus (Bac to Bac, pFASTBAC1)
Description: Mat2A protein was expressed by recombinant baculovirus in SF9 infected cells using the Bac to Bac system cloned into the pFASTBAC1 vector (Invitrogen, Carlsbad, CA). Recombinant MAT2A was isolated from the cell lysate of 150 g of infected cells using HP Ni sepharose column chromatography. Recombinant MAT2A homodimer was eluted with 250 and 500 mM imidazole, and fractions containing MAT2A were identified by sodium dodecyl sulfate polyacrylamide gel electrophoresis and pooled.
For determination of the inhibitory potency of compounds against the MAT2A homodimer, protein was diluted to 4 μg/mL in assay buffer (50 mM Tris, pH 8.0, 50 mM KCl, 15 mM MgCl2, 0.3 mM EDTA, 0.005% [w/v] bovine serum albumin [BSA]). Test compound was prepared in 100% dimethyl sulfoxide (DMSO) at 50× the desired final concentration. A 1 μL volume of compound dilution was added to 40 μL of enzyme dilution and the mixture was allowed to equilibrate for 60 minutes at 25° C. The enzymatic assay was initiated by the addition of 10 μL of substrate mix (500 μM ATP, pH 7.0, 400 μM L-methionine in 1× assay buffer), and the mixture was incubated for a further 60 minutes at 25° C. The reaction was halted and the liberated phosphate released by the enzyme in stoichiometric amounts by the production of S-adenosyl methionine (SAM) was measured using the PiColorLock Gold kit (Innova Biosciences, UK). Absolute product amounts were determined by comparison to a standard curve of potassium phosphate buffer, pH 8.0.

[2] = tested on: HCT116 MTAP−/−; assay: Inhibition of cellular proliferation (Cell Titer Glo), HCT116 MTAP-/-; assay type: cell-based; details: Homo sapiens, HCT-116, 96 h, 4 days, read-out: 4 Day Relative Growth Inhibition (MTAP −/−)
Description: (§1) Test compound impact on cancer cell growth was assessed by treating cancer cells with compound for 4 days and then measuring proliferation using an ATP-based cell proliferation readout (Cell Titer Glo, Promega Corporation).
(§2) In a typical assay an isogenic pair of HCT116 human colon carcinoma cell lines which vary only in MTAP deletion status (HCT116 MTAP+/+ and HCT116 MTAP−/−) were plated in 96-well dishes at appropriate cell density. Following 24 hours, cells were then treated with the candidate MAT2A inhibitor. Prior to addition to cells, the compound was first serially diluted in 100% DMSO, typically as a 3-fold serial dilution starting at 500× top dose with 10 dose points including DMSO only control. Compound was then transferred to a working stock plate in cell culture media by adding 5 μL of compound in DMSO to 495 μL of cell culture media. This working stock was then added to cells via a further 5-fold dilution, by adding 25 μL of working stock to 100 μL of cells in culture media. Following compound addition, cells were incubated at 37° C./5% CO2 for 4 days.
(§3) To measure inhibition of cellular proliferation, cells were allowed to equilibrate to room temperature for 30 minutes, and were then treated with 125 μL of Cell Titer Glo reagent. The plate was then covered with aluminum foil and shaken for 15 minutes to ensure complete mixing and full cell lysis. Luminescent signal was then measured using a plate-based luminometer Veritas version 1.9.2 using ATP standard curve to confirm assay reproducibility from run to run. This luminescence measure was converted to a proliferation index by subtracting from each data point the ATP luminescence signal measured from a bank (no cells) well and dividing by the ATP luminescence signal measured in 0.2% DMSO control well adjusted for signal in blank well. Compound activity was then represented as a percentage change in proliferation relative to a within-plate DMSO control against log 10 of compound concentration in molar (M) units.

[3] = tested on: HCT116 MTAP+/+; assay: Inhibition of cellular proliferation (Cell Titer Glo), HCT116 MTAP+/+; assay type: cell-based; details: Homo sapiens, HCT-116, 96 h, 4 days, read-out: 4 Day Relative Growth Inhibition (MTAP +/+)
Description: as §1, §2, §3

[4] = tested on: MAT2A activity (SAM) in HCT116 cells with deleted MTAP gene; assay: Cellular assay of target engagement (SAM) by LC-MS/MS; assay type: cell-based; details: Homo sapiens, HCT-116; HCT116 MTAP −/−, 72 hrs; read-out: Cell 72 h SAM Inhibition (MTAP −/−)
Description: Measurement of MAT2A activity in cells was made by direct quantitation of the abundance of the product of its enzymatic activity, SAM. Cancer cells were treated with candidate MAT2A inhibitors for a suitable incubation period, and the cells were then lysed using a reagent which quenched any further enzyme activity. Soluble metabolites including SAM were collected and SAM itself was directly measured from the lysate using quantitative LC-MS/MS.
A typical assay was performed using an HCT116 human colon carcinoma cell line which was genetically engineered to delete the MTAP gene (commercially available from Horizon Discovery). This cell line was utilized because it was determined that loss of the MTAP gene predicts sensitivity to MAT2A inhibitors. Cells were plated in 96-well dishes at appropriate cell density. Following 24 hours, cells were then treated with the candidate MAT2A inhibitor. Prior to addition to cells, the compound was first serially diluted in 100% DMSO, typically as a 3-fold serial dilution starting at 500× top dose with 10 dose points including DMSO only control. Compound was then transferred to a working stock plate in cell culture media by adding 5 μL of compound in DMSO to 495 μL of cell culture media. This working stock was then added to cells via a further 5-fold dilution, by adding 25 μL of working stock to 100 μL of cells in culture media. Following compound addition, cells were incubated at 37° C./5% CO2 for 72 hrs.
To quantitate SAM levels following compound treatment, cells were gently washed once in ammonium carbonate buffer (75 mM at pH 7.4), placed on dry ice, and lysed with metabolite extraction buffer (80% cold methanol and 20% water (v/v) with acetic acid at 1M final concentration with 200 ng/mL deuterated d3-SAM as internal control). Following centrifugation at 4° C. at 3,200 rpm for 30 minutes, the supernatant was collected and stored at −80° C. until analysis by Liquid Chromatography with tandem Mass Spectrometry (LC-MS/MS). LC-MS/MS analysis was performed using an API6500 Mass Spectrometer (Sciex, Framingham, MA, USA) operating in positive ion spray mode and equipped with a Waters UPLC Acquity (Waters, Milford, MA, USA) BEH Amide column. Multiple Reaction Monitoring data was acquired for SAM and the d3-SAM standard, using a mass transition pair at m/z 399.2→250.1 and 402.2→250.1, respectively. In a typical LC-MS/MS analysis, the initial flow rate was 0.5 ml/min of 25% mobile phase A (acetonitrile and water at 5:95 (v/v) with 1% formic acid and 10 mM ammonium acetate) and 75% mobile phase B (acetonitrile and water at 95:5 (v/v) with 1% formic acid and 10 mM ammonium acetate), 0.2-0.5 minutes with 75%-35% mobile phase B, 25%-65% mobile phase A, at 0.5 min 65% mobile phase A and 35% mobile phase B, 1.0-1.1 minutes with 35%-75% mobile phase B, 65%-25% mobile phase A, at 1.1 min 25% mobile phase A and 75% mobile phase B with a total run time of 1.5 minutes.

T1 sequence (P31153 whole entry): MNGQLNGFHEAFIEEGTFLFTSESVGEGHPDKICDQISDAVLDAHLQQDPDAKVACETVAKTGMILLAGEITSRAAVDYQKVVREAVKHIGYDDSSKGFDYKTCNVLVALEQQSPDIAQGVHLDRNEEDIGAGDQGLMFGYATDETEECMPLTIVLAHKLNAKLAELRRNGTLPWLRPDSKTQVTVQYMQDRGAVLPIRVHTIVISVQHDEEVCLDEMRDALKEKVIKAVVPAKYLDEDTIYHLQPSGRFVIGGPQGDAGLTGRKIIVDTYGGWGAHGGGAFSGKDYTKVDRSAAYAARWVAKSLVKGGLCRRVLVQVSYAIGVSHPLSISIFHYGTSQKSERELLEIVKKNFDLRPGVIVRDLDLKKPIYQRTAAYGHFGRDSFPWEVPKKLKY

SMILES | IC50 [1] [nM] | IC50 [2] [nM] | IC50 [3] [nM] | IC50 [4] [nM]
CCOc1ccc2nn(-c3ccc4nn(C)cc4c3)c(=O)c(-c3ccc(OC(F)(F)F)nc3)c2n1 [Example 121] | < 100 | < 100 | ≥ 1000 | < 100
CCOc1ccc2nn(-c3ccc(OC)cc3)c(=O)c(-c3ccc(OC(F)F)nc3)c2n1 [Example 122] | < 100 | < 100 | ≥ 1000 | 100 to 1000
Cn1cc2cc(-n3nc4ccc(OCC(F)(F)F)nc4c(-c4ccc(OC(F)F)cc4)c3=O)ccc2n1 [Example 123] | < 100 | < 100 | 100 to 1000 | < 100
Cn1cc2cc(-n3nc4ccc(OCC(F)F)nc4c(-c4ccc(Cl)cc4)c3=O)ccc2n1 [Example 124] | < 100 | < 100 | 100 to 1000 | < 100
Cn1cc2cc(-n3nc4ccc(OCC(F)F)nc4c(-c4ccc(OC(F)F)cc4)c3=O)ccc2n1 [Example 125, 6-(2,2-difluoroethoxy)-4-(4-(difluoromethoxy)phenyl)-2-(2-methyl-2H-indazol-5-yl)pyrido[3,2-c]pyridazin-3(2H)-one] | < 100 | < 100 | 100 to 1000 | < 100
Cn1cc2cc(-n3nc4ccc(OCC(F)F)nc4c(-c4ccc(OC(F)F)nc4)c3=O)ccc2n1 [Example 126] | < 100 | < 100 | ≥ 1000 | < 100
CCOc1ccc2nn(-c3ccc4nn(C)cc4c3)c(=O)c(-c3ccc(C(F)(F)F)nc3)c2n1 [Example 127] | < 100 | < 100 | ≥ 1000 | < 100
Cn1cc2cc(-n3nc4ccc(OCC(F)F)nc4c(-c4ccc(OC(F)(F)F)nc4)c3=O)ccc2n1 [Example 128] | < 100 | < 100 | ≥ 1000 | < 100
Cn1cc2cc(-n3nc4ccc(OCCF)nc4c(-c4ccc(OC(F)F)cc4)c3=O)ccc2n1 [Example 129] | < 100 | < 100 | ≥ 1000 | < 100
COc1ccc(-c2c(=O)n(-c3ccc4nn(C)cc4c3)nc3ccc(OCC(F)F)nc23)cn1 [Example 130] | < 100 | < 100 | 100 to 1000 | < 100
Cn1cc2cc(-n3nc4ccc(OCC5CCC5)nc4c(-c4ccc(OC(F)F)cc4)c3=O)ccc2n1 [Example 131] | < 100 | ≥ 1000 | ≥ 1000 | 100 to 1000
Cn1cc2cc(-n3nc4ccc(OCCC(F)(F)F)nc4c(-c4ccc(OC(F)F)cc4)c3=O)ccc2n1 [Example 132] | < 100 | 100 to 1000 | ≥ 1000 | 100 to 1000

Further lines, results first:

IC50 [1] [nM] | IC50 [2] [nM] | IC50 [3] [nM] | IC50 [4] [nM] | SMILES
< 100 | < 100 | ≥ 1000 | < 100 | Cn1cc2cc(-n3nc4ccc(OCC(F)F)nc4c(-c4ccc(C5CC5)nc4)c3=O)ccc2n1 [Example 107]
< 100 | < 100 | ≥ 1000 | < 100 | [2H]C([2H])([2H])Oc1ccc(-c2c(=O)n(-c3ccc4nn(C)cc4c3)nc3ccc(OCC(F)F)nc23)cc1 [Example 108]
< 100 | < 100 | ≥ 1000 | < 100 | Cn1cc2cc(-n3nc4ccc(OCC(F)F)nc4c(-c4ccc(OC(F)(F)F)cc4)c3=O)ccc2n1 [Example 109]
< 100 | < 100 | 100 to 1000 | < 100 | [2H]C([2H])([2H])Oc1ccc(-c2c(=O)n(-c3ccc4nn(C)cc4c3)nc3ccc(OCC)nc23)cc1 [Example 110]
< 100 | < 100 | ≥ 1000 | < 100 | CCCOc1ccc2nn(-c3ccc4nn(C)cc4c3)c(=O)c(-c3ccc(OC(F)F)cc3)c2n1 [Example 111]
< 100 | 100 to 1000 | ≥ 1000 | 100 to 1000 | CCOc1ccc2nn(-c3ccc(OC)cc3)c(=O)c(-c3ccc(C)nc3)c2n1 [Example 112]
< 100 | 100 to 1000 | ≥ 1000 | < 100 | Cn1cc2cc(-n3nc4ccc(OC5CC5)nc4c(-c4ccc(Cl)cc4)c3=O)ccc2n1 [Example 113]
< 100 | < 100 | ≥ 1000 | < 100 | Cn1cc2cc(-n3nc4ccc(OCC(F)F)nc4c(-c4ccc(C5CC5)cc4)c3=O)ccc2n1 [Example 114]
< 100 | < 100 | 100 to 1000 | < 100 | CCOc1ccc2nn(-c3ccc4nn(C)cc4c3)c(=O)c(-c3ccc(OC)cc3)c2n1 [Example 115]
< 100 | < 100 | ≥ 1000 | < 100 | Cn1cc2cc(-n3nc4ccc(OCC(F)(F)F)nc4c(-c4ccc(Cl)cc4)c3=O)ccc2n1 [Example 116]
< 100 | < 100 | ≥ 1000 | < 100 | CCOc1ccc2nn(-c3ccc(OC)cc3)c(=O)c(-c3ccc(Cl)cc3)c2n1 [Example 117]
< 100 | < 100 | ≥ 1000 | < 100 | CCOc1ccc2nn(-c3ccc4nn(C)cc4c3)c(=O)c(-c3ccc(Cl)cc3)c2n1 [Example 119]
< 100 | < 100 | ≥ 1000 | < 100 | CCOc1ccc2nn(-c3ccc4nn(C)cc4c3)c(=O)c(-c3ccc(OC(F)F)nc3)c2n1 [Example 120]
